According to US12371428B2 (Exelixis, Inc., priority 2019, dated 2025):

How the values were obtained:
[1] = biological target: Human MET (residues 956-1390) (Homo sapiens (Human), UniProt P08581); assay: Human Met kinase assay, HTRF KinEase (Example D-2); format: biochemical; conditions: protocol of Example D-2 (other compounds); read-out: c-Met IC50
How it was run: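 HTRF KinEase assay on MET residues 956-1390 (0.1 ng/well) in buffer with 5 mM MgCl2, 1 mM DTT and 1 mM MnCl2, with biotinylated peptide substrate, ATP at Km, 10 compound concentrations and 3% DMSO final, run 40 min at room temperature. The […] signal was normalized to DMSO and to 1 μM reference compound, and IC50 came from a 4-parameter logistic fit.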

[2] = biological target: Met (phospho-Met, HGF-stimulated PC-3 prostate cancer cells) (Homo sapiens (Human), UniProt P08581); assay: Met autophosphorylation ELISA in PC-3 cells (Example F); format: cell-based; conditions: cellular activity; Met autophosphorylation ELISA in PC-3 cells; read-out: c-Met IC50
How it was run: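 Serum-starved (3 h) PC-3 cells were treated 1 h with compounds (8-point curve, 0.3% DMSO), then stimulated with 100 ng/mL human HGF for 10 min. Lysate phospho-Met (panTyr) was measured by sandwich ELISA, normalised to DMSO and reference-inhibitor controls. IC50 came from 4-parameter logistic fit.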

[3] = biological target: KDR (phospho-KDR, VEGF165-stimulated HUVEC cells) (Homo sapiens (Human), UniProt P35968); assay: KDR autophosphorylation ELISA in HUVEC cells (Example G); format: cell-based; conditions: cellular activity; KDR autophosphorylation ELISA in HUVEC cells
How it was run: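 Read-out: phospho-KDR in cell lysates by DuoSet IC ELISA, normalised between VEGF-stimulated DMSO wells (100%) and unstimulated wells (0%). Human endothelial cells were starved overnight in serum-free medium, exposed to compound for 1 h, and then pulsed with 100 ng/mL VEGF165 for 5 min.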

Chain of KDR (phospho-KDR, VEGF165-stimulated HUVEC cells) (P35968 20-1356): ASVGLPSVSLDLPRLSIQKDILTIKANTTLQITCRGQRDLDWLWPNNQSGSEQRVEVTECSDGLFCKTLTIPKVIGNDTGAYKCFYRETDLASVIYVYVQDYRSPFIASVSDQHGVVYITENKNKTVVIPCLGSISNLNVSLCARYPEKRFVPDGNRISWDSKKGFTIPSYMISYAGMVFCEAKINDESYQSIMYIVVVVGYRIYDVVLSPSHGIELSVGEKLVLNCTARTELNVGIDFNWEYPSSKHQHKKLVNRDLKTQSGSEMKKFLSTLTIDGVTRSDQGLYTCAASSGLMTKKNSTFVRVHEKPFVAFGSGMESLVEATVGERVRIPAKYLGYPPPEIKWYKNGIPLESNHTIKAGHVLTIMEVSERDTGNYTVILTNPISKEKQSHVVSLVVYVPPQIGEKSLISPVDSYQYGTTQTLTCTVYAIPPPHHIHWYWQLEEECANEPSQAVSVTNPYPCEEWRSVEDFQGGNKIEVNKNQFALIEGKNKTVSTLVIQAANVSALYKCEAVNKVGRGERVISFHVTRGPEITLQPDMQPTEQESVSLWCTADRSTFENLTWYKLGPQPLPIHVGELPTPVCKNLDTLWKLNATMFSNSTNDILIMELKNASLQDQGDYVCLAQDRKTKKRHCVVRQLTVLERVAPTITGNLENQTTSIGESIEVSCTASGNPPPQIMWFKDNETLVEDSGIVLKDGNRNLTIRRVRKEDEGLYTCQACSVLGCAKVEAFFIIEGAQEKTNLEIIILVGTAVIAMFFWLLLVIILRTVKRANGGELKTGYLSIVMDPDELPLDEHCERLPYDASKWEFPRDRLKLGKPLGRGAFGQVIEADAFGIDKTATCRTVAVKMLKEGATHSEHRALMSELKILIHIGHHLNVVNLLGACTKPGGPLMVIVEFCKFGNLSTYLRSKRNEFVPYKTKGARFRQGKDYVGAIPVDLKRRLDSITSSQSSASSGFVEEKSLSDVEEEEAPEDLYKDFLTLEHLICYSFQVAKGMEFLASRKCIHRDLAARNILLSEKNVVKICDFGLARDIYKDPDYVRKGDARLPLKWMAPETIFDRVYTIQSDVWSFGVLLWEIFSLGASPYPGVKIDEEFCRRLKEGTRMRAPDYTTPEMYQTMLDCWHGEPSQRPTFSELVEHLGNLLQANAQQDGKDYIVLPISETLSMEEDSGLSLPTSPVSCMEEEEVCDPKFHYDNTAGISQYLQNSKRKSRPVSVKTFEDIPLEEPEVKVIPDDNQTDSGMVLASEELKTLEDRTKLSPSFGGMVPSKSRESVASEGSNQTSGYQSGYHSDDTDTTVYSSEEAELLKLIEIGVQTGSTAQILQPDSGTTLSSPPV
Chain of Met (phospho-Met, HGF-stimulated PC-3 prostate cancer cells) (P08581 25-1390): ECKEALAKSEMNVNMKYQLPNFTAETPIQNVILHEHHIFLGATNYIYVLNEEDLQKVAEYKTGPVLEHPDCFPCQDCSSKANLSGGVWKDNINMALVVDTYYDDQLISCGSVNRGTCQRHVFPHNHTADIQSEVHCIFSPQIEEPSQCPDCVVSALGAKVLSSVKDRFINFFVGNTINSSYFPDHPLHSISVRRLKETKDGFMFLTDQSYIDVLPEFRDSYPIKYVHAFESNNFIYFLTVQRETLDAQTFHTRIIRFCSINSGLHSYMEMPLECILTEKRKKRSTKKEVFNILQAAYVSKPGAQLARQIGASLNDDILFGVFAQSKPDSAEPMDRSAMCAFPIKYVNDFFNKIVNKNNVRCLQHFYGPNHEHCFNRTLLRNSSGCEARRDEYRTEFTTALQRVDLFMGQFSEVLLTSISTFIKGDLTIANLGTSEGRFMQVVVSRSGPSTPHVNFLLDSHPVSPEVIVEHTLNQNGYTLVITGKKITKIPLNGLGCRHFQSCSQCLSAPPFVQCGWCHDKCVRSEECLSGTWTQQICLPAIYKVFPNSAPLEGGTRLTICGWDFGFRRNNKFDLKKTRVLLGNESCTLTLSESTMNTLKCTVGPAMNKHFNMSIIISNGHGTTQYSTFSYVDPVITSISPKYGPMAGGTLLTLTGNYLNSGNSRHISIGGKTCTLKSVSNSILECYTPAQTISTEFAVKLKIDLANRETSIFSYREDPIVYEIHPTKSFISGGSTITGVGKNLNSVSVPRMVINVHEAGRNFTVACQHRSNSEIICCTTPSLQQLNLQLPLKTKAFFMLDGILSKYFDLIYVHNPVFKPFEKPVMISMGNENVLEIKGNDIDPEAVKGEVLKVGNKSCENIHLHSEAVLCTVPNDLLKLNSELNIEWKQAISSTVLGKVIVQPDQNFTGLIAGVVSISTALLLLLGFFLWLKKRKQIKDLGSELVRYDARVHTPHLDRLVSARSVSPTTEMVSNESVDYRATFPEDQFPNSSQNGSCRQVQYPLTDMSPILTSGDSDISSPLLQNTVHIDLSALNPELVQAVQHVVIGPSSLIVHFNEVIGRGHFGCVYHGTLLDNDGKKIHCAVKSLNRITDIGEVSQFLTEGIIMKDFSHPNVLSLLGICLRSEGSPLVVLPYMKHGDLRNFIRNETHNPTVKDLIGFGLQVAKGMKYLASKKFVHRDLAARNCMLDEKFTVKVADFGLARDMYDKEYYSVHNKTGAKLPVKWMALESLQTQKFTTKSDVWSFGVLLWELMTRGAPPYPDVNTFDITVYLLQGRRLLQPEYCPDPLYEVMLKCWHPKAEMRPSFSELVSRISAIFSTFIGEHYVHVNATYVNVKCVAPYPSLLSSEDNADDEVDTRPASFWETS
Chain of Human MET (residues 956-1390) (P08581 956-1390): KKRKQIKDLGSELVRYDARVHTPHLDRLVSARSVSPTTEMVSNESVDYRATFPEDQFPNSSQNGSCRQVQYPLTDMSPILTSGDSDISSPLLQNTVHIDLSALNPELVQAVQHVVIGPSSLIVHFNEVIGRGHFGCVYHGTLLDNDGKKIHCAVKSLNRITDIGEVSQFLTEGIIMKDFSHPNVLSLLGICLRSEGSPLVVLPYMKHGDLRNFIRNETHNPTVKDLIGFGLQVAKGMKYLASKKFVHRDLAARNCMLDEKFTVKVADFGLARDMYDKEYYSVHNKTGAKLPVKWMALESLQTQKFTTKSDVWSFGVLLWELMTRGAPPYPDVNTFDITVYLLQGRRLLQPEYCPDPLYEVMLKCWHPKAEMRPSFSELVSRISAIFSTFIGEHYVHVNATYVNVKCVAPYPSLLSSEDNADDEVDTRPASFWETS

| Structure (SMILES) | IC50 [1] [nM] | IC50 [2] [nM] | IC50 [3] [nM] |
| --- | --- | --- | --- |
| COc1cc2nccc(Oc3ccc(NC(=O)c4cn(C)c(C)c(-c5ccc(F)cc5)c4=O)cc3Cl)c2nc1OC [Compound 388, N-[3-chloro-4-[(6,7-dimethoxy-1,5-naphthyridin-4-yl)oxy]phenyl]-5-(4-fluorophenyl)-1,6-dimethyl-4-oxopyridine-3-carboxamide] | < 100 | < 100 | < 100 |
| COc1cc2nccc(Oc3ccc(NC(=O)c4cn(C)c(C)c(-c5ccc(F)cc5)c4=O)c(F)c3)c2nc1OC [Compound 389, N-[4-[(6,7-dimethoxy-1,5-naphthyridin-4-yl)oxy]-2-fluorophenyl]-5-(4-fluorophenyl)-1,6-dimethyl-4-oxopyridine-3-carboxamide] | > 300 | < 100 | > 300 |
| COc1cc2nccc(Oc3ccc(NC(=O)c4cn(C)c(C)c(-c5ccc(F)cc5)c4=O)c(F)c3F)c2nc1OC [Compound 390, N-[4-[(6,7-dimethoxy-1,5-naphthyridin-4-yl)oxy]-2,3-difluorophenyl]-5-(4-fluorophenyl)-1,6-dimethyl-4-oxopyridine-3-carboxamide] | < 100 | < 100 | < 100 |
| COc1cc2nccc(Oc3cc(F)c(NC(=O)c4cn(C)c(C)c(-c5ccc(F)cc5)c4=O)cc3F)c2nc1OC [Compound 391, N-[4-[(6,7-dimethoxy-1,5-naphthyridin-4-yl)oxy]-2,5-difluorophenyl]-5-(4-fluorophenyl)-1,6-dimethyl-4-oxopyridine-3-carboxamide] | < 100 | < 100 | > 300 |
| COc1cc2nccc(Oc3c(F)cc(NC(=O)c4cn(C)c(C)c(-c5ccc(F)cc5)c4=O)cc3F)c2nc1OC [Compound 392, N-[4-[(6,7-dimethoxy-1,5-naphthyridin-4-yl)oxy]-3,5-difluorophenyl]-5-(4-fluorophenyl)-1,6-dimethyl-4-oxopyridine-3-carboxamide] | < 100 | < 100 | > 300 |
| COc1cc2nccc(Oc3ccc(NC(=O)c4ncc(C)n(-c5ccc(F)cc5C)c4=O)cc3F)c2nc1OC [Compound 393, N-[4-[(6,7-dimethoxy-1,5-naphthyridin-4-yl)oxy]-3-fluorophenyl]-4-(4-fluoro-2-methylphenyl)-5-methyl-3-oxopyrazine-2-carboxamide] | < 100 | < 100 | < 100 |
| COc1ccc2nccc(Oc3ccc(NC(=O)c4ncc(C)n(-c5ccc(F)cc5C)c4=O)cc3F)c2n1 [Compound 394, N-[3-fluoro-4-[(6-methoxy-1,5-naphthyridin-4-yl)oxy]phenyl]-4-(4-fluoro-2-methylphenyl)-5-methyl-3-oxopyrazine-2-carboxamide] | < 100 | < 100 | > 300 |
| COc1cc2nccc(Oc3ncc(NC(=O)c4cn(C5CC5)cc(-c5ccc(F)cc5)c4=O)cc3F)c2cc1OC [Compound 399, 1-cyclopropyl-N-[6-(6,7-dimethoxyquinolin-4-yl)oxy-5-fluoropyridin-3-yl]-5-(4-fluorophenyl)-4-oxopyridine-3-carboxamide] | < 100 | < 100 | > 300 |
| COc1cc2nccc(Oc3ncc(NC(=O)c4cn(C5CN(C)C5)cc(-c5ccc(F)cc5)c4=O)cc3F)c2cc1OC [Compound 400, N-[6-(6,7-dimethoxyquinolin-4-yl)oxy-5-fluoropyridin-3-yl]-5-(4-fluorophenyl)-1-(1-methylazetidin-3-yl)-4-oxopyridine-3-carboxamide] | < 100 | < 100 | > 300 |
